Laboratory results published in US20090123907A1 (priority 2004, published 2009).
Values joined by “and” are separate entries in the source; they are usually repeats but may differ in a detail not shown here. Identical values can stand only once.

Columns and labels:
[1] = tested on: clotting enzyme activation (D-dimers); assay: D-dimer test (DimerTest latex agglutination) for cryptic activation in citrated plasma; assay type: biochemical
Experimental: The samples were divided into four 1 ml aliquots. To three of the sample aliquots, sufficient concentrated citrate solution was added to achieve 1%, 1.5% or 2% weight/volume citrate, respectively, while the fourth aliquot acted as the control.
As a “worst case” scenario to detect activation, the aliquots were incubated at 21° C. for a maximum of ten days. Each aliquot was assayed daily for the presence of D-dimers using the DimerTest latex agglutination assay (American Diagnostica, Stamford, Conn.). The results are shown in Table 1 where the number of days to observable D-dimers is listed for each aliquot. […] At day six of incubation, 41.2% (14) of the control aliquots were positive for the presence of D-dimers. By day seven, 100% (34) of the normal citrate (0.4%) aliquots were positive for D-dimers.

[2] = tested on: red blood cells; assay: Red blood cell integrity during storage at 4° C.; assay type: cell-based; parameters: MCV Day 20 / MCV Day 33: unit not given here; conditions: for RBC Day 1: whole blood; for MCV Day 20 / MCV Day 33: whole blood stored at 4° C.
Experimental: (§1) In this experiment whole blood (an aliquot of which clotted within 10 minutes without anticoagulant) was modified by adding a number of different anticoagulant compositions. Sodium citrate was used as an anticoagulant at 0.65%, 0.75% and 0.9% by weight. These are all higher citrate levels than the usual 0.4% by weight. Amino acid citrates (lysine or arginine) were used at 0.65%, 0.75% and 0.9% by weight based on the weight of the citric acid. The amino acid counterion was used in sufficient quantity to adjust the pH as explained above.
To judge red cell condition the blood was counted and various other measurements were taken initially and after 20 and 33 days of storage at 4° C. Apparent initial/differences in RBC counts are due to dilution caused by adding extra anticoagulant. Mean cell volume (MCV) is a red cell index that is a useful measure of red cell health. […] It is believed that a citrate level of at least about 1.0% by weight (i.e., more than two times the usual amount) is necessary to ensure against all activation of plasma proteins. […] On the other hand, amino acid citrates, which are very effective anticoagulants, are also effective at preventing red cell damage.

[3] = tested on: clot formation; assay: Clotting times (PT, PTT) of anticoagulated whole blood; assay type: biochemical
Experimental: as §1

Row | Compound | number of days to observable D-dimers ([1]; 0.4% Citrate, plasma at 21° C., maximum ten days) | aliquots positive for the presence of D-dimers ([1]; 0.4% citrate control aliquots, day six of incubation) [%] | aliquots positive for D-dimers ([1]; 0.4% citrate, by day seven) [%] | aliquots that showed D-dimers by day ten ([1]; additional citrate (1%, 1.5%, 2%)) | RBC Day 1 ([2]; anticoagulant 0.65 wgt %) | MCV Day 20 ([2]; anticoagulant 0.65 wgt %) | MCV Day 33 ([2]; anticoagulant 0.65 wgt %) | RBC Day 1 ([2]; anticoagulant 0.75 wgt %) | MCV Day 20 ([2]; anticoagulant 0.75 wgt %) | MCV Day 33 ([2]; anticoagulant 0.75 wgt %) | RBC Day 1 ([2]; anticoagulant 0.90 wgt %) | MCV Day 20 ([2]; anticoagulant 0.90 wgt %) | MCV Day 33 ([2]; anticoagulant 0.90 wgt %) | PT (4 hrs at RT) ([3]; anticoagulant 0.65 wgt %) [s] | PTT (4 hrs at RT) ([3]; anticoagulant 0.65 wgt %) [s] | PT (4 hrs at RT) ([3]; anticoagulant 0.75 wgt %) [s] | PTT (4 hrs at RT) ([3]; anticoagulant 0.75 wgt %) [s] | PT (4 hrs at RT) ([3]; anticoagulant 0.90 wgt %) [s] | PTT (4 hrs at RT) ([3]; anticoagulant 0.90 wgt %) [s]
1 | O=C(O)CC(O)(CC(=O)O)C(=O)O [Citrate] | 6 days and 7 days and 5 days | 41.2 | 100 | None |  |  |  |  |  |  |  |  |  |  |  |  |  |  | 
2 | N=C(N)NCCC[C@H](N)C(=O)O.O=C(O)CC(O)(CC(=O)O)C(=O)O [Arg Citrate, arginine citrate] |  |  |  |  | 5.77 10^6/μl | 93.1 | 93.5 | 6.45 10^6/μl | 92.6 | 93.6 | 6.77 10^6/μl | 91.5 | 92.4 | 15.8 | 36.8 | 20.2 | 39.9 | 55 | 56.8
